Reference: US20220127335A1, “TETRAMERIC PROTEIN SCAFFOLDS AS NANO-CARRIERS OF THERAPEUTIC PEPTIDES FOR TREATING CANCER AND OTHER DISEASES” (UNIVERSITY OF MARYLAND, BALTIMORE, priority 2019, published 2022)
Residue numbers refer to the chain shown, from its start. Where two headings read alike, the source gives them in different places.

B1: ^PMIBcr/Abl-R6 (designed binder)
chain: MVDPTSFAEYWALLSPDSEPPRMELRSVGDIEQELERAKASIRRLEQEVNQERFRMIYLQTLLAKEKKSYDRRRRRRR
notes: Bcr/Abl tetramerization domain with PMI grafted in place of residues 5-16 and a C-terminal Arg hexapeptide (R6); 78 residues, chemically synthesized by native chemical ligation; Exists as a tetramer in aqueous buffer
B2: Bcr/Abl-R6 (other)
chain: B1 chain with T5V, S6G, Y10A, A12K, L13A, L14Q, S15F
notes: Negative control scaffold without the PMI graft: Bcr/Abl tetramerization domain with C-terminal R6; Chemically synthesized; tetramer in aqueous buffer
B3: ^PMIBcr/Abl: Bcr/Abl tetramerization domain with PMI grafted in place of residues 5-16, without R6; negative control (protein)
chain: MVDPTSFAEYWALLSPDSEPPRMELRSVGDIEQELERAKASIRRLEQEVNQERFRMIYLQTLLAKEKKSYDR

Tests used:
[1] = end of three-week treatment
[2] = Complete blood cell analysis after 21-day treatment; conditions: end of three-week treatment
Procedure: (§1) Statistical analysis was performed using T-test, NS standing for no significant difference.

[3] = tested on: p53, p21, PUMA, NOXA in HCT116 p53^+/+ cells; assay: Western blotting of p53, p21, PUMA, NOXA; type: cell-based; conditions: 12.5 μM, 48 h
Procedure: The primary antibodies were from Santa Cruz Biotechnology (p53), Calbiochem (p21, PUMA and NOXA) and Sigma-Aldrich (β-actin), and secondary antibodies conjugated with horseradish peroxidase from Calbiochem.
T-test was performed for statistical analysis, * standing for p<0.05, *** for p<0.001. The data are the means±SD of three independent Western blotting assays.

[4] = tested on: HCT 116 p53^+/+ cells; assay: Cellular uptake by flow cytometry and confocal microscopy; type: cell-based
Procedure: HCT 116 p53^+/+ cells were seeded in a 12-well plate at a density of 30,000 cells/well, cultured for 24 h, and treated with peptide or protein at 10 μM for 4 h before flow cytometric analysis.
Hoechst 33342 blue dye was used for nuclei staining.
Peptide/protein internalization and cytosolic release were also examined using both confocal microscopy and flow cytometry.
Cationic cell penetrating peptides as a carrier are known to promote cellular uptake of cargos primarily through the […], which is inhibited by heparin but not by amiloride. To better understand the mechanism of cellular uptake of ^PMIBcr/Abl-R6, confocal microscopic analysis was performed on cells treated with heparin or amiloride.

[5] = tested on: HCT116 p53^+/+ xenograft tumors; assay: Histopathology of xenograft tumors (H&E and TUNEL staining); type: in vivo, BALB/c nude mice; conditions: tumors after three-week treatment, 5 mg/Kg
Description: Representative tumors from each treatment group were fixed with formaldehyde, dehydrated and sliced into 5 μm-thick sections, and subjected to H&E staining according to standard protocols (scale bar: 50 μm).
FIG. 7F is the terminal deoxynucleotidyl transferase dUTP nick end labeling (TUNEL) assay to stain fragmented DNA in apoptotic cells (scale bar: 50 μm).

[6] = tested on: HCT116 p53^+/+ cells; assay: Cell viability (CCK-8), HCT116 p53^+/+; type: cell-based; conditions: 48 h after treatment, 1.56 μM to 50 μM
Procedure: (§2) Following a 2-h incubation with CCK-8 reagents, absorbance values at 450 nm were measured on a microplate reader, and percent cell viability was calculated as (Atreatment−Ablank)/(Acontrol−Ablank)×100%. The data are the means of three independent assays.
Three independent assays were performed.

[7] = tested on: HCT116 p53^+/+ xenograft tumors; assay: Tumor growth inhibition in nude mouse xenograft model; type: in vivo, BALB/c nude mice; conditions: 5 mg/Kg subcutaneous every other day, 3 weeks
[8] = target: the molecule itself; assay: self-association into tetramer; SEC, DLS, fluorescence polarization, SAXS
[9] = mouse, in vivo
Procedure: as §1

[10] = tested on: HCT116 p53^−/− cells; assay: Cell viability (CCK-8), HCT116 p53^−/−; conditions: 48 h after treatment
Procedure: as §2

[11] = target: T1, MDM2 (p53-binding domain) (UniProt Q00987 25-109, limits assumed); assay: ITC, MicroCal ITC 200, 25° C., 20 mM Tris/HCl pH 7.4
T1 construct: The ITC legends say only 'MDM2'
T1 sequence (Q00987 25-109 limits assumed): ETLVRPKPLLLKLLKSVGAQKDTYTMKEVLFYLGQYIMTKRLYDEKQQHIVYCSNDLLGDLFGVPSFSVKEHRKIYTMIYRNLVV

[12] = tested on: HCT116 p53^+/+ cells; assay: Apoptosis by flow cytometry (annexin V / propidium iodide); type: cell-based; conditions: 12.5 μM, 48 h
Procedure: Apoptosis was detected using a standard apoptotic kit from Biolegend, including APC labeled anti-annexin V antibody and a propidium iodide solution.
Three independent FACS assays were performed, and data are shown as the means±SD (n=3). p values were calculated by t-test (***, p<0.001).

Row | Molecule | toxicity to liver and kidney tissues (H&E) [1] | expression of p21, PUMA and NOXA (Western blotting) [3] | p53 level (Western blotting) [3] | necrotic and apoptotic tumor cells (H&E and TUNEL) [5] | cell viability / growth inhibition [6] | effect on tumor growth [7] | blood cell counts (WBC, LYM, MID, GRN, RBC, PLT) versus mock-treated control [9] | also measured
1 | COc1ccc(C2=N[C@@H](c3ccc(Cl)cc3)[C@@H](c3ccc(Cl)cc3)N2C(=O)N2CCNC(=O)C2)c(OC(C)C)c1 [Nutlin-3, reference compound] | no overt toxicity | upregulation | significantly stabilized p53 | – | – | – | – | blood cell counts (WBC, LYM, MID, GRN, RBC, PLT) versus mock-treated control [2]: no statistically significant difference
2 | ^PMIBcr/Abl-R6: Bcr/Abl tetramerization domain with PMI grafted in place of residues 5-16, C-terminally extended by Arg-repeating hexapeptide (R6); 78 residues, tetramer | – | upregulation | significantly stabilized p53 | massive necrotic and apoptotic tumor cells | dose-dependent growth inhibition | significantly inhibited it | – | cellular uptake (flow cytometry) ([4]; BDP TR-labeled, 10 μM, 4 h): much more efficiently; cytosolic distribution (confocal microscopy) ([4]; BDP TR-labeled, 10 μM, 4 h): cytosolic distribution; effect of amiloride on internalization ([4]; amiloride 3 mM, 12 h before addition): little effect; effect of heparin on internalization ([4]; heparin sodium 5 mM, 12 h before addition): almost completely blocked it
3 | B1 | – | – | – | – | – | – | – | binding result [8]: binds
4 | B2 | no overt toxicity | – | – | lack of activity | neither PMI nor Bcr/Abl-R6 had any effect on the viability | no effect on tumor growth | no statistically significant difference | cell viability [10]: neither PMI nor Bcr/Abl-R6 had any effect on the viability; binding result [11]: no binding; apoptosis (FACS) [12]: largely unaffected
5 | B3 | no overt toxicity | – | – | partial activity | – | marginally active | no statistically significant difference | –
